From patent US11020405B2, “Method for prevention or treatment of diabetic complications” (KANGWON NATIONAL UNIVERSITY UNIVERSITY-INDUSTRY COOPERATION …, priority 2017, dated 2021) come the findings set out here.

The subject of test [1] is human retinal endothelial cells (HRECs). Kind of test: Analysis of ROS of cells (H2DCFDA fluorescence). Type of test: cell-based. Conditions: 10 ng/mL VEGF with 20 μM midazolam, 5 μM BAPTA-AM, 1 mM NAC, 0.5 μM Trolox, 50 μM cystamine or 20 μM MDC (FIG. 3B). As to the method: (§1) Purchased from Applied Cell Biology Research Institute (Cell Systems, Kirkland, Wash.), human retinal endothelial cells (HRECs) were cultured in an M19 medium, containing 20% FBS, 3 ng/mL bFGF, 5 U/mL heparin, 100 U/mL penicillin and […], in a 2% gelatin-coated plate.
(§2) Before the following Test Examples 2 to 7, the HRECs were cultured for 6 hr in a medium containing 1% FBS and an antibiotic agent, thus preparing HRECs of Test Example 1.
With reference to FIG. 3A, the HRECs of Test Example 1 were treated with 0 to 20 μM midazolam, cultured for 30 min, treated with 10 ng/mL VEGF and 10 μM H2DCFDA (Molecular Probes, Eugene, Oreg.), stained for 10 min in a phenol-red-free low-serum medium, and then measured using confocal microscopy to thus determine the fluorescence intensity of single cells.
With reference to FIG. 3B, the HRECs of Test Example 1 were subjected to the respective treatments below and cultured for 30 min. Upon treatment with 10 ng/mL VEGF, treatment with 10 μM H2DCFDA was performed therewith, or alternatively, treatment with 10 μM H2DCFDA was performed alone, followed by staining for 10 min in a phenol-red-free low-serum medium and then measurement via confocal microscopy to thus determine the fluorescence intensity of single cells.

In another test the test system is β-catenin. Kind of test: Analysis of adherens junction (β-catenin staining). Type of test: cell-based, human. To be noted: HRECs, 10 ng/mL VEGF 90 min with 20 μM midazolam, 5 μM BAPTA-AM, 1 mM NAC, 0.5 μM Trolox, 50 μM cystamine or 20 μM MDC (FIGS. 8, 9). As for the experimental part:
as §1, §2
The HRECs of Test Example 1 were subjected to the respective treatments below and cultured for 30 min. Here, treatment with 10 ng/mL VEGF was performed for 90 min. Thereafter, the HRECs were treated with 1 mM 5-(biotinamido)pentylamine, incubated for 1 hr, fixed with 3.7% formaldehyde, treated with 0.2% triton X-100, treated with a blocking solution containing 138 mM NaCl, 0.1% Tween 20 and 2% BSA dissolved in a 20 mM Tris (pH 7.6) buffer, incubated for 30 min, incubated with a monoclonal β-catenin antibody (1:200; Santa Cruz Biotechnology) for 12 hr or more, incubated with a FITC-conjugated goat anti-mouse antibody, and measured using confocal microscopy. Some (the following i), ii), iii), iv)) of the results are shown in FIG. 8, and the β-catenin concentrations in the portions represented by the dotted lines in FIG. 8 are shown in FIG. 9. With reference to FIG. 9, 10 randomly selected cells were measured to determine the fluorescence intensity of single cells and thus quantify β-catenin.
β-catenin, which is a protein that mediates adherens junction like VE-cadherin, was analyzed to evaluate adherens junction.

Test [2] has as its system human retinal endothelial cells (HRECs). Kind of test: Analysis of intracellular Ca^2+ (Fluo4-AM, confocal microscopy). To be noted: 10 ng/mL VEGF with 5 μM BAPTA-AM, 1 mM NAC, 0.5 μM Trolox, 50 μM cystamine or 20 μM MDC, 30 min (FIG. 2B). Type of test: cell-based. As for the experimental part:
as §1, §2
With reference to FIG. 2A, the HRECs of Test Example 1 were subjected to the respective treatments below, stained with 2 μM Fluo4-AM at 37° C. for 30 min and then measured at time intervals of 10 sec using confocal microscopy (FV-300, Olympus, Tokyo, Japan).
With reference to FIG. 2B, the HRECs of Test Example 1 were subjected to the respective treatments below, cultured for 30 min, stained with 2 μM Fluo4-AM at 37° C. for 30 min and then measured at time intervals of 10 sec using confocal microscopy.

A further test relates to VE-cadherin. Kind of test: Analysis of adherens junction (VE-cadherin staining). Type of test: cell-based, human. Conditions: HRECs, 10 ng/mL VEGF 90 min with 20 μM midazolam, 5 μM BAPTA-AM, 1 mM NAC, 0.5 μM Trolox, 50 μM cystamine or 20 μM MDC (FIGS. 5, 6). As to the method:
as §1, §2
The HRECs of Test Example 1 were subjected to the respective treatments below and cultured for 30 min. Here, treatment with 10 ng/mL VEGF was performed for 90 min. Thereafter, the HRECs were treated with 1 mM 5-(biotinamido)pentylamine, incubated for 1 hr, fixed with 3.7% formaldehyde, treated with 0.2% triton X-100, treated with a blocking solution containing 138 mM NaCl, 0.1% Tween 20 and 2% BSA dissolved in a 20 mM Tris (pH 7.6) buffer, incubated for 30 min, incubated with a monoclonal VE-cadherin antibody (1:200; Santa Cruz Biotechnology) for 12 hr or more (overnight), incubated with a FITC-conjugated goat anti-mouse antibody (1:200; Sigma-Aldrich), and then measured using confocal microscopy. Some (the following i), iii), iv), vi), ix)) of the results are shown in FIG. 5 and the VE-cadherin concentrations in the portions represented by the dotted lines in FIG. 5 are shown in FIG. 6. With reference to FIG. 6, 10 randomly selected cells were measured to determine the fluorescence intensity of single cells and thus quantify VE-cadherin.
VE-cadherin, which is a protein that mediates adherens junction, was analyzed to evaluate adherens junction.

For test [3], the system named is endothelial monolayer of HRECs. Kind of test: Analysis of cell permeability (FITC-dextran, Transwell). In kind it is cell-based, human. To be noted: HREC monolayer, 10 ng/mL VEGF 90 min with 20 μM midazolam, 5 μM BAPTA-AM, 1 mM NAC, 0.5 μM Trolox, 50 μM cystamine or 20 μM MDC; 40 kDa FITC-dextran 60 min (FIG. 7). As to the method:
The HRECs were cultured (e.g. about 5 days) until the cell confluence thereof reached an appropriate level on gelatin-coated 0.4 μm polycarbonate membranes of Transwell Permeable Supports (Costar, Corning, N.Y.), followed by the respective treatments below and culture for 30 min. Here, treatment with 10 ng/mL VEGF was performed for 90 min. Thereafter, the HRECs were treated with 1 mg/mL 40 kDa FITC-dextran (Sigma-Aldrich), incubated for 60 min, after which the amount of FITC-dextran that was diffused into the lower chamber through the endothelial monolayer of HERCs was measured using a microplate spectrofluorometer (Molecular Devices, Sunnyvale, Calif.).

A further test has as its system TGase. Kind of test: Identification of receptor of midazolam through TGase activity analysis. Type of test: cell-based, human. To be noted: HRECs, 0-50 μM flumazenil or 0-30 μM PK11195 1 hr, then 20 μM midazolam 30 min, then 10 ng/ml VEGF (FIG. 11B). As to the method: With reference to FIG. 11A, the HRECs of Test Example 1 were subjected to the respective treatments below, cultured for 2 hr, treated with 1 mM 5-(biotinamido)pentylamine, incubated for 1 hr, fixed with 3.7% formaldehyde, treated with 0.2% triton X-100, treated with a blocking solution containing 138 mM NaCl, 0.1% Tween 20 and 2% BSA dissolved in a 20 mM Tris (pH 7.6) buffer, incubated for 30 min, incubated with FITC-conjugated streptavidin (1:200, v/v) for 1 hr, and then measured using confocal microscopy to thus determine the fluorescence intensity of single cells.
(§3) As will be described below, flumazenil was used as a GABAA receptor antagonist and PK11195 was used as a TSOP receptor antagonist.
With reference to FIG. 11B, the HRECs of Test Example 1 were treated with 0 μM, 0.01 μM, 0.1 μM, 1 μM, 10 μM, 20 μM, and 50 μM flumazenil and 0 μM, 0.01 μM, 0.1 μM, 1 μM, 3 μM, 10 μM, and 30 μM PK11195, cultured for 1 hr, treated with 20 μM midazolam, cultured for 30 min, treated with 10 ng/ml VEGF, incubated for 10 min, treated with 1 mM 5-(biotinamido)pentylamine, incubated for 1 hr, fixed with 3.7% formaldehyde, treated with 0.2% triton X-100, treated with a blocking solution containing 138 mM NaCl, 0.1% Tween 20 and 2% BSA dissolved in a 20 mM Tris (pH 7.6) buffer, incubated for 30 min, incubated with FITC-conjugated streptavidin (1:200, v/v) for 1 hr, and then measured using confocal microscopy to thus determine the fluorescence intensity of single cells.

For test [4], the system named is human retinal endothelial cells (HRECs). Kind of test: Identification of receptor of midazolam through ROS concentration analysis. In kind it is cell-based. To be noted: 0-50 μM flumazenil or 0-30 μM PK11195 1 hr, then 20 μM midazolam 30 min, then 10 ng/ml VEGF (FIG. 10B). As to the method:
With reference to FIG. 10A, the HRECs of Test Example 1 were subjected to the respective treatments below, cultured for 10 min, treated with 10 μM H2DCFDA, stained for 10 min in a phenol-red-free low-serum medium, and measured using confocal microscopy to thus determine the fluorescence intensity of single cells.
as §3
With reference to FIG. 10B, the HRECs of Test Example 1 were treated with 0 μM, 0.01 μM, 0.1 μM, 1 μM, 10 μM, 20 μM, and 50 μM flumazenil and 0 μM, 0.01 μM, 0.1 μM, 1 μM, 3 μM, 10 μM, and 30 μM PK11195, cultured for 1 hr, treated with 20 μM midazolam, cultured for 30 min, treated with 10 ng/ml VEGF, incubated for 10 min, treated with 10 μM H2DCFDA, stained for 10 min in a phenol-red-free low-serum medium, and then measured using confocal microscopy to thus determine the fluorescence intensity of single cells.

`CC(=O)OCOC(=O)CN(CC(=O)OCOC(C)=O)c1ccccc1OCCOc1ccccc1N(CC(=O)OCOC(C)=O)CC(=O)OCOC(C)=O` [BAPTA-AM]: the “ROS concentration (VEGF-induced) compared to control” value in test [1] is listed as “no significant ROS concentration increase was observed”. Besides, the “β-catenin concentration / adherens junction disruption due to VEGF” value in the test with β-catenin is listed as “the effect of preventing the adherens junction disruption was also observed”. In test [2], the “changes in intracellular Ca^2+ (VEGF-induced) compared to control” value (“changes” for short) is reported as “no significant changes in intracellular Ca^2+”. Also, in the test on VE-cadherin, the “VE-cadherin concentration / adherens junction disruption due to VEGF” value is listed as “the effect of preventing the adherens junction disruption was also observed”. Also, the “FITC-dextran diffused into lower chamber (cell permeability) / adherens junction disruption due to VEGF” value in test [3] was “the effect of preventing the adherens junction disruption was also observed”.
For the compound `CN(C)c1cccc2c(S(=O)(=O)NCCCCCN)cccc12` [MDC], the “ROS concentration (VEGF-induced) compared to control” value in test [1] is listed as “ROS concentration was increased”. For the same compound, the “β-catenin concentration / adherens junction disruption due to VEGF” value with β-catenin is given as “the effect of preventing the adherens junction disruption was also observed”. Besides, the “changes” value in test [2] is on record as “intracellular Ca^2+ elevation was caused”. In the test with VE-cadherin, the “VE-cadherin concentration / adherens junction disruption due to VEGF” value is “the effect of preventing the adherens junction disruption was also observed”. In addition, in test [3], the “FITC-dextran diffused into lower chamber (cell permeability) / adherens junction disruption due to VEGF” value is listed as “the effect of preventing the adherens junction disruption was also observed”.
In the case of `CC(=O)N[C@@H](CS)C(=O)O` [NAC], the “ROS concentration (VEGF-induced) compared to control” value in test [1] is “no significant ROS concentration increase was observed”. Moreover, the “β-catenin concentration / adherens junction disruption due to VEGF” value in the test with β-catenin is recorded as “the effect of preventing the adherens junction disruption was also observed”. Besides, in test [2], the “changes” value is “intracellular Ca^2+ elevation was caused”. For the same compound, the “VE-cadherin concentration / adherens junction disruption due to VEGF” value in the test with VE-cadherin is “the effect of preventing the adherens junction disruption was also observed”. In addition, in test [3], the “FITC-dextran diffused into lower chamber (cell permeability) / adherens junction disruption due to VEGF” value is listed as “the effect of preventing the adherens junction disruption was also observed”.
Take `CCC(C)N(C)C(=O)c1cc2ccccc2c(-c2ccccc2Cl)n1` (stereo not drawn) [PK11195]: the “TGase activity in midazolam- and VEGF-treated cells after receptor antagonist” value with TGase is reported as “no increase in TGase activity, regardless of the PK11195 concentration”. Besides, the “ROS concentration in midazolam- and VEGF-treated cells after receptor antagonist” value in test [4] is “no increase in ROS concentration, regardless of the PK11195 concentration”.
With `Cc1c(C)c2c(c(C)c1O)CCC(C)(C(=O)O)O2` (stereo not drawn) [Trolox], the “ROS concentration (VEGF-induced) compared to control” value in test [1] was “no significant ROS concentration increase was observed”. Moreover, the “β-catenin concentration / adherens junction disruption due to VEGF” value in the test on β-catenin was “the effect of preventing the adherens junction disruption was also observed”. Besides, the “changes” value in test [2] is reported as “intracellular Ca^2+ elevation was caused”. Also, in the test with VE-cadherin, the “VE-cadherin concentration / adherens junction disruption due to VEGF” value is listed as “the effect of preventing the adherens junction disruption was also observed”. Also, the “FITC-dextran diffused into lower chamber (cell permeability) / adherens junction disruption due to VEGF” value in test [3] is listed as “the effect of preventing the adherens junction disruption was also observed”.
`NCCSSCCN` [cystamine]: in test [1], the “ROS concentration (VEGF-induced) compared to control” value is on record as “ROS concentration was increased”. In addition, in the test on β-catenin, the “β-catenin concentration / adherens junction disruption due to VEGF” value is recorded as “the effect of preventing the adherens junction disruption was also observed”. For the same compound, the “changes” value in test [2] is listed as “intracellular Ca^2+ elevation was caused”. In the test with VE-cadherin, the “VE-cadherin concentration / adherens junction disruption due to VEGF” value was “the effect of preventing the adherens junction disruption was also observed”. Moreover, the “FITC-dextran diffused into lower chamber (cell permeability) / adherens junction disruption due to VEGF” value in test [3] is on record as “the effect of preventing the adherens junction disruption was also observed”.
